Laboratory results as given in ChEMBL document CHEMBL1201862, “PubChem BioAssay data set” (2004).
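1) Cells in 96-well plates. 2) Compound, 48 h, 5 concentrations. 3) Linear interpolation between surrounding doses. 4) Unreached endpoint = highest concentration. GI50 marks 50% less growth.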 Active and inactive are the calls of the source. Rule as the data show it: active = GI50 up to about 1.1 µM and inactive = higher.

Columns and labels:
Test in all cases: NCI anticancer screen, dose series, 48 h
[1] = system: RPMI-8226
[2] = system: NCI-H226
[3] = system: NCI-H23
[4] = system: SK-MEL-5
[5] = system: HL-60
[6] = system: UACC-62
[7] = system: CCRF-CEM
[8] = system: UACC-257
[9] = system: U-251
[10] = system: MCF7
[11] = system: SK-MEL-28
[12] = system: PC-3
[13] = system: TK-10
[14] = system: MDA-N
[15] = system: NCI/ADR-RES
[16] = system: SW-620
[17] = system: HT-29

SMILES	GI50 [1]	GI50 [2]	GI50 [3]	GI50 [4]	GI50 [5]	GI50 [6]	GI50 [7]	GI50 [8]	GI50 [9]	GI50 [10]	GI50 [11]	GI50 [12]	GI50 [13]	GI50 [14]	GI50 [15]	GI50 [16]	GI50 [17]
Cc1cc(C)n(C(=O)CSc2nnc(SCC(=O)n3nc(C)cc3C)s2)n1	> 100 µM (inactive)	> 100 µM (inactive)	> 100 µM (inactive)	> 100 µM (inactive)	> 100 µM (inactive)	> 100 µM (inactive)	> 100 µM (inactive)	> 100 µM (inactive)	> 100 µM (inactive)	> 100 µM (inactive)	> 100 µM (inactive)	> 100 µM (inactive)	> 100 µM (inactive)	> 100 µM (inactive)	> 100 µM (inactive)	> 100 µM (inactive)	–
COC(=O)C1=C(C(=O)OC)C2OC1C1C2C2(C)C(C)=C(C)C1(C)[S+]2[O-] (stereo unspecified)	4.73 µM (inactive)	8.02 µM (inactive)	6.93 µM (inactive)	7.62 µM (inactive)	–	8.99 µM (inactive)	–	12.4 µM (inactive)	13.8 µM (inactive)	6.28 µM (inactive)	19.1 µM (inactive)	16.1 µM (inactive)	12.2 µM (inactive)	11.3 µM (inactive)	23.7 µM (inactive)	4.14 µM (inactive)	6.47 µM (inactive)
CC(=O)OCCCCn1cnc2nc(Nc3ccccc3)nc(Cl)c21	> 100 µM (inactive)	57 µM (inactive)	–	42.2 µM (inactive)	> 100 µM (inactive)	33.7 µM (inactive)	78.2 µM (inactive)	58.7 µM (inactive)	> 100 µM (inactive)	> 100 µM (inactive)	> 100 µM (inactive)	42.5 µM (inactive)	> 100 µM (inactive)	31.2 µM (inactive)	42.4 µM (inactive)	> 100 µM (inactive)	91.6 µM (inactive)
C(/C=N/c1ccccc1)=C(/Nc1ccccc1)C12CC3CC(CC(C3)C1)C2	–	19.2 µM (inactive)	18.3 µM (inactive)	14.7 µM (inactive)	12.1 µM (inactive)	12.1 µM (inactive)	2.72 µM (inactive)	27.9 µM (inactive)	15 µM (inactive)	20.5 µM (inactive)	20.5 µM (inactive)	14.9 µM (inactive)	21.4 µM (inactive)	13.8 µM (inactive)	19.3 µM (inactive)	14 µM (inactive)	12.6 µM (inactive)
CCC(=O)C(c1ccccc1)c1ccccn1 (stereo unspecified)	> 100 µM (inactive)	> 100 µM (inactive)	> 100 µM (inactive)	> 100 µM (inactive)	> 100 µM (inactive)	> 100 µM (inactive)	> 100 µM (inactive)	> 100 µM (inactive)	> 100 µM (inactive)	> 100 µM (inactive)	> 100 µM (inactive)	> 100 µM (inactive)	> 100 µM (inactive)	> 100 µM (inactive)	> 100 µM (inactive)	> 100 µM (inactive)	> 100 µM (inactive)
OCCOCn1nc(-c2ccccc2)nc1-c1cnccn1	> 100 µM (inactive)	–	> 100 µM (inactive)	> 100 µM (inactive)	> 100 µM (inactive)	> 100 µM (inactive)	> 100 µM (inactive)	> 100 µM (inactive)	> 100 µM (inactive)	> 100 µM (inactive)	> 100 µM (inactive)	> 100 µM (inactive)	> 100 µM (inactive)	> 100 µM (inactive)	> 100 µM (inactive)	> 100 µM (inactive)	> 100 µM (inactive)
CCCn1c(C23CC4CC(CC(C4)C2)C3)nc2ccc(Cl)cc2c1=O	28.7 µM (inactive)	> 100 µM (inactive)	50.5 µM (inactive)	41.3 µM (inactive)	21.6 µM (inactive)	25.9 µM (inactive)	45.5 µM (inactive)	33.2 µM (inactive)	45.1 µM (inactive)	23.7 µM (inactive)	57.5 µM (inactive)	37.1 µM (inactive)	48.2 µM (inactive)	33 µM (inactive)	21.9 µM (inactive)	> 100 µM (inactive)	24.9 µM (inactive)
CCN1CCC(O)(/C=C/c2ccccc2C)C(C(=O)/C=C/c2ccccc2C)C1 (stereo unspecified)	–	3.79 µM (inactive)	1.8 µM (inactive)	1.56 µM (inactive)	2.01 µM (inactive)	2.97 µM (inactive)	1.85 µM (inactive)	2.9 µM (inactive)	2.34 µM (inactive)	3.15 µM (inactive)	2.39 µM (inactive)	1.93 µM (inactive)	2.94 µM (inactive)	2.67 µM (inactive)	3.65 µM (inactive)	2.74 µM (inactive)	2.63 µM (inactive)
Nc1ccc(C2(c3ccc(N)cc3)C3CC4CC(C3)CC2C4)cc1	–	19.9 µM (inactive)	12.4 µM (inactive)	–	19.2 µM (inactive)	16.3 µM (inactive)	3.76 µM (inactive)	19.2 µM (inactive)	18.3 µM (inactive)	19.5 µM (inactive)	14.9 µM (inactive)	14.9 µM (inactive)	18 µM (inactive)	18.6 µM (inactive)	0.0792 µM (active)	11.4 µM (inactive)	0.998 µM (active)
COc1ccc(/C=C/c2cnccn2)cc1OC	–	> 10 µM (inactive)	> 10 µM (inactive)	> 10 µM (inactive)	–	> 10 µM (inactive)	–	> 10 µM (inactive)	> 10 µM (inactive)	> 10 µM (inactive)	> 10 µM (inactive)	> 10 µM (inactive)	> 10 µM (inactive)	> 10 µM (inactive)	> 10 µM (inactive)	> 10 µM (inactive)	> 10 µM (inactive)
COC(OC)[C@@H]1OC[C@@H](O)[C@@H]1n1cnc2c(N)ncnc21	> 100 µM (inactive)	> 100 µM (inactive)	> 100 µM (inactive)	> 100 µM (inactive)	–	> 100 µM (inactive)	> 100 µM (inactive)	> 100 µM (inactive)	> 100 µM (inactive)	> 100 µM (inactive)	> 100 µM (inactive)	> 100 µM (inactive)	> 100 µM (inactive)	> 100 µM (inactive)	> 100 µM (inactive)	> 100 µM (inactive)	> 100 µM (inactive)
CCC1C(c2ccccc2O)c2cc3c(cc2OC1N1CCOCC1)OCO3 (stereo unspecified)	13.9 µM (inactive)	15.7 µM (inactive)	18.2 µM (inactive)	16.7 µM (inactive)	18.2 µM (inactive)	13.1 µM (inactive)	13.9 µM (inactive)	16 µM (inactive)	13.6 µM (inactive)	14.4 µM (inactive)	17.6 µM (inactive)	12.5 µM (inactive)	13.9 µM (inactive)	12.8 µM (inactive)	–	15.9 µM (inactive)	13.6 µM (inactive)
CCOC(=O)c1c2ccccc2n2c(=O)n(-c3ccccc3)nnc12	15.3 µM (inactive)	> 40.2 µM (inactive)	> 87.1 µM (inactive)	15.7 µM (inactive)	23.8 µM (inactive)	10.4 µM (inactive)	1.4 µM (inactive)	> 33.3 µM (inactive)	98.4 µM (inactive)	0.923 µM (active)	> 100 µM (inactive)	> 90.6 µM (inactive)	> 100 µM (inactive)	> 42.4 µM (inactive)	> 58.3 µM (inactive)	> 100 µM (inactive)	–
CC(C)=CCc1c(OC(=O)c2c(C)cc(O)cc2O)cc(CO)c(CO)c1O	–	34 µM (inactive)	16.8 µM (inactive)	14.8 µM (inactive)	4.5 µM (inactive)	15.2 µM (inactive)	> 10 µM (inactive)	29.9 µM (inactive)	17.5 µM (inactive)	24 µM (inactive)	18.5 µM (inactive)	18 µM (inactive)	26.3 µM (inactive)	19.1 µM (inactive)	30.1 µM (inactive)	> 10 µM (inactive)	21.2 µM (inactive)
COc1cc2cc(C(=O)N3CC(CCl)c4c3cc([N+](C)(C)Cc3ccc([N+](=O)[O-])n3C)c3ccccc43)[nH]c2c(OC)c1OC (stereo unspecified)	0.316 µM (active)	1.87 µM (inactive)	0.472 µM (active)	1.32 µM (inactive)	1.15 µM (inactive)	1.12 µM (inactive)	1.77 µM (inactive)	2.06 µM (inactive)	2.33 µM (inactive)	1.46 µM (inactive)	2.33 µM (inactive)	0.184 µM (active)	2.67 µM (inactive)	2.13 µM (inactive)	0.849 µM (active)	1.69 µM (inactive)	1.29 µM (inactive)
Nc1ncnc2c1ncn2C=C=CCO	> 100 µM (inactive)	> 100 µM (inactive)	> 100 µM (inactive)	> 100 µM (inactive)	–	–	> 100 µM (inactive)	> 100 µM (inactive)	> 100 µM (inactive)	> 100 µM (inactive)	> 100 µM (inactive)	> 100 µM (inactive)	> 100 µM (inactive)	> 100 µM (inactive)	> 100 µM (inactive)	> 100 µM (inactive)	> 100 µM (inactive)
Oc1cc(-c2ccccc2)nc2c(S)cccc12	> 100 µM (inactive)	17.2 µM (inactive)	> 100 µM (inactive)	37.1 µM (inactive)	97.9 µM (inactive)	> 100 µM (inactive)	> 100 µM (inactive)	> 100 µM (inactive)	> 100 µM (inactive)	> 100 µM (inactive)	> 100 µM (inactive)	47.3 µM (inactive)	> 100 µM (inactive)	> 100 µM (inactive)	> 100 µM (inactive)	> 100 µM (inactive)	> 100 µM (inactive)
